Data: patent US20030068611A1, “Methods for increasing microbial metabolic efficiency through regulation of oxidative stress” (priority 2001, published 2003)

Assays:
Type in all cases: cell-based, E. coli
[1] = test system: wild type; conditions: 10 microliters of 30% hydrogen peroxide or cumene hydroperoxide on 1/4 in filter disc on LB plate, 24 h at 37° C., typical numbers
[2] = test system: oxyR2; conditions: 10 microliters of 30% hydrogen peroxide or cumene hydroperoxide on 1/4 in filter disc on LB plate, 24 h at 37° C., typical numbers
[3] = test system: MC4100oxyR2; experiment: resistance to organic solvent, tetralin overlay on LB plate, oxyR2 mutant; conditions: oxyR2 mutant strain; 5 mm depth tetralin overlay on LB agar; overnight at 37° C.
Protocol: (§1) Wild type MC4100/oxyR^+ and MC4100oxyR2 mutants were streaked onto the same LB plate made with a 80 mm diameter PYREX Petri dish (VWR International, West Chester, Pa.). Solvent tetralin (1,2,3,4-tetrahydronaphthalene) was then poured onto the LB agar surface to have a 5 mm depth of overlay. The plate was then covered with a Petri dish cover and sealed with a strip of parafilm (American National Can, Chicago, Ill.), and put into 37° C. incubator. After overnight culturing, tetralin was decanted and the plate was put into a fume hood for 30 min to allow evaporation of the remaining tetralin. A picture of the plate was taken with an Eagle Eye® II still imaging system (Stratagene, La Jolla, Calif.).

[4] = test system: MC4100/oxyR^+; experiment: resistance to organic solvent, tetralin overlay on LB plate, wild type; conditions: wild type strain (oxyR^+); 5 mm depth tetralin overlay on LB agar; overnight at 37° C.
Protocol: as §1

| Compound | Diameter of the zone killed [1] [mm] | Diameter of the zone killed [2] [mm] | colony growth under solvent overlay [3] | colony growth under solvent overlay [4] |
| --- | --- | --- | --- | --- |
| OO [Hydrogen peroxide] | 25 | 13 | – | – |
| c1ccc2c(c1)CCCC2 [tetralin, 1,2,3,4-tetrahydronaphthalene] | – | – | grew just fine | No colony was observed |
